Laboratory results published in publication PMC5054527, “Mechanism of high affinity inhibition of the human urate transporter URAT1” (Scientific Reports, 2016).
Values joined by “and” are separate entries in the source; they are usually repeats but may differ in a detail not shown here. Equal values may be shown once.

Legend:
[1] = target: h-r EC1,TM2-4 URAT1 chimera (Homo sapiens, UniProt Q96S37, A103T/A133T/A162V/A184S/A189I/A193M/A195T/A226S/A51V/A59S/A71V/D100E/E110D/E70D/F192L/F208S/G218A/H142Q/I126T/I75V/K134T/K145R/L174R/L206V/L64P/L67F/L99I/M183V/M186S/N136D/N82D/P101S/P165H/P69R/Q182L/R124H/R89L/S107N/S46H/S66D/S68G/T128R/T219S/V117E/V198L/Y152F); experiment: cell-based; conditions: IC50 (uric acid transport), HEPES pH 7.3, 100 μM 14C-uric acid
h-r EC1,TM2-4 URAT1 chimera, sequence (Q96S37 1-553 with the stated changes): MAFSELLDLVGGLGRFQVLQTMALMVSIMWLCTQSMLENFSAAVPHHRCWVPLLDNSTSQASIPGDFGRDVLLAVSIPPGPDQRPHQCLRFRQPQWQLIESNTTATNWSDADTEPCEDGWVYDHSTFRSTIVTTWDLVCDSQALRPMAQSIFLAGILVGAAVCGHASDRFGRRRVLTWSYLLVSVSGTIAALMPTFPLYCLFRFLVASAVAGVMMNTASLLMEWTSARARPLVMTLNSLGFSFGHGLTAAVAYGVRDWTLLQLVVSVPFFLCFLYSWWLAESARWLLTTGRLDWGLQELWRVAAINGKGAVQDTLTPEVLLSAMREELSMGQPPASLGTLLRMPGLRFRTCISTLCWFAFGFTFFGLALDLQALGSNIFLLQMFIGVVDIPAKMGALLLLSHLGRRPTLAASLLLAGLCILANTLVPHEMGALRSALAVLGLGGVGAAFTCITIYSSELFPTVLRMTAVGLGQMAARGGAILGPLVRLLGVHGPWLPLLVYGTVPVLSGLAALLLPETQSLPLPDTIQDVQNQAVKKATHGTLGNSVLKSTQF
Source text: (§1) hURAT1 (GenBank BC053348.1) and rURAT1 (NCBI NM_001034943.1) genes were purchased from Origene Technologies, Inc. and subcloned into pCMV6/neo using NotI, creating pCMV6/neo-hURAT1 and pCMV6/neo-rURAT1. Mutants were produced by polymerase chain reaction (PCR) or site-directed mutagenesis using the QuikChange Lightning Multi Site-Directed Mutagenesis Kit (Agilent Technologies). […] Detailed methods are provided in Supplementary Methods, and primers are listed in Supplementary Table 1. […] Residues in rURAT1 and hOAT1 that correspond to the residues in hURAT1 were identified from aligned protein sequences (Supplementary Fig. 1)[50].
(§2) DNA (10 μg) was mixed with 30 μl of DreamFect Gold (Boca Scientific) in 2 ml OptiMem (Life Technologies). […]
(§3) Compounds were serially diluted into assay buffer and added to the cells for 5 minutes prior to addition of radiolabelled uric acid substrate. […] Each treatment was measured in triplicate. […]
(§4) Nonlinear regression analyses using GraphPad Prism software were used to calculate the potency of URAT1 inhibitors (IC50 values) from log (inhibitor) versus response - variable slope (four parameters) equations. Statistical significance was assessed using Student’s unpaired t-tests.

h-r IC3 URAT1 chimera = h-r IC3 URAT1 chimera (Homo sapiens, UniProt Q96S37, F348L/G295S/G307R/G309K/G331N/I305V/K308R/L287I/L321R/L328P/M330G/M343T/P317V/P333A/P334G/Q297R/Q312A/R325Q/R342H/S329N/S336R/T289V/V311E/W294Q/W300Q); experiment: cell-based
h-r IC3 URAT1 chimera, sequence (Q96S37 1-553 with the stated changes): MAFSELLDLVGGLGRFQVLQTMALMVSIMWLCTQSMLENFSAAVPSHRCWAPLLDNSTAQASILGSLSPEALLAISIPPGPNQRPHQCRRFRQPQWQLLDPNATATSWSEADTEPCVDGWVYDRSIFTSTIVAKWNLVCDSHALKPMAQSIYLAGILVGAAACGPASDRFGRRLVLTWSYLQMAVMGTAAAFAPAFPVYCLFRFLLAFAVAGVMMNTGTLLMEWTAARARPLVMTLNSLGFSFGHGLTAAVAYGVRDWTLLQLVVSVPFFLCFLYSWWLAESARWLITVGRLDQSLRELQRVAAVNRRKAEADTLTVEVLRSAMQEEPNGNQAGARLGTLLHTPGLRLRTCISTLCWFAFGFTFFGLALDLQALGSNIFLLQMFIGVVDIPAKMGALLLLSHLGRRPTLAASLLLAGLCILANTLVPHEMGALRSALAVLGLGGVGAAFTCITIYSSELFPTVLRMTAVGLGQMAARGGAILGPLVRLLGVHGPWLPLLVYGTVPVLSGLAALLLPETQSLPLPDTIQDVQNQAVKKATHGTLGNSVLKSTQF
Source text: as §1, §2, §3, §4

## O=C1C(CC[S+]([O-])c2ccccc2)C(=O)N(c2ccccc2)N1c1ccccc1 (centres unmarked) [sulfinpyrazone]
[1]
  IC50: 3 µM and 3.4 µM
h-r IC3 URAT1 chimera
  IC50: 67 ± 15 µM
